Experimental data as given in article PMC12153055 (Organometallics, 2025).

Columns and labels:
p62 = assay: Western blot quantification of p62 in MCF7 cells; format: cell-based, human; conditions: 10 μM, 24 h
Description: Since no significant correlation emerged among cytotoxicity, DNA binding affinity, and proteasome inhibition, the effects of the treatment on the expression levels of p62 were evaluated. p62 is a multifunctional binding protein that is involved in signaling pathways of many cellular activities, including autophagy, whose abnormal expression is associated with malignancies, breast cancer in particular. […] This effect was more evident for the free ligand, in agreement with its higher cytotoxicity to breast cancer cells compared with that of the corresponding ruthenium complex (Figure ).
4 Representative autoradiographs (upper panel) and densitometric analyses (lower panel) of p62 levels in MCF7 cells treated with 10 μM of HZPbdcurc and [3]-Cl for 24 h (*p < 0.01 compared with the control; #p < 0.01 compared with [3]-Cl).
Semiquantitative analysis of p62 was performed by Western blotting upon individual 24 h treatments of MCF-7 cells with 10 μM of HZPbdcurc or [Ru(p-cym)(HZPbdcurc)-Cl]-Cl. Treated cells were lysed, and 15 μg of total protein was electrophoresed on 12% SDS-PAGE, then protein bands were electroblotted onto PVDF membranes (Millipore–Milan, Italy). After incubation with anti-p62 monoclonal antibody (Merck Sigma–Milan, Italy), the bands were immunodetected on a ChemiDoc MP imaging system (Bio-Rad - Milan, Italy). […] Western blot results were analyzed using Fiji software.

[1] = test system: MCF7-CR cisplatin-resistant breast cancer cells; assay: MTT cytotoxicity assay, MCF7CR cells; format: cell-based, human; conditions: 72 h exposure, mean ± SD of three experiments
Description: (§1) The stability of [1]-Cl-[4]-Cl was evaluated in aqueous phosphate-buffered solution (PBS, pH 7.4) using UV–visible spectroscopy. […] The cytotoxicity of the compounds was measured according to a standard MTT assay against human breast cancer (MCF7 and MCF7CR) and ovarian cancer (A2780 and A2780cis) cell lines, and also nontumorigenic MCF10A and human embryonic kidney HEK293T cells (Table ).
(§2) All cell lines were grown in a humidified 5% CO2 environment at 37 °C in dedicated media. Growth media comprised minimum essential medium (MEM) supplemented with 10% FBS, 1% sodium pyruvate, antibiotics, and antimycotic agents for MCF7. MCF10A cells were cultured in a DMEM/F12 Ham’s mixture supplemented with 5% equine serum, 20 ng/mL EGF, 10 μg/mL insulin, […], antibiotics, and antimycotics. MCF7-CR cells were grown in minimum essential medium (MEM), 10% FBS supplemented with 0.1 mg/mL cisplatin, sodium pyruvate, antibiotics, and antimycotics. A2780 and A2780cis cells were cultured in RPMI 1640 GlutaMAX, and HEK293T cells were cultured in DMEM GlutaMAX medium containing 10% heat-inactivated FBS and antibiotics. The effect exerted on cell viability by the compounds was determined using the 3-(4,5-dimethylthiazol-2-yl)-2,5-diphenyltetrazolium bromide (MTT) assay. After individual treatments with 0–100 μM of the compound for 72 h, MTT was added to the culture media at a final concentration of 0.5 mg/mL and incubated for 2 h at 37 °C. Cisplatin was used as a positive control. The medium was replaced with 100 μL of DMSO, and after 10 min, the optical density was recorded at 550 nm on a microplate reader. At least six cultures were used for each data point. Chemicals (Merck-Sigma, Milan, Italy) and plasticware (Corning, Milan, Italy) were cell culture grade.

[2] = biological target: 20S proteasome chymotrypsin-like activity (Homo sapiens, UniProt P28074); assay: Isolated 20S proteasome, chymotrypsin-like activity (Suc-Leu-Leu-Val-Tyr-AMC); format: biochemical; conditions: 0–100 μM, 1 h, 37 °C, pH 8.0
Description: (§3) Proteasome inhibition by the compounds was evaluated with respect to three major activities of the 20S proteasome, namely, chymotrypsin-like, trypsin-like, and caspase-like activities.
(§4) The effect of the compounds on the activity of the isolated 20S proteasome was tested using specific synthetic fluorogenic peptide substrates (Suc-Leu-Leu-Val-Tyr-AMC, Z-Leu-Ser-Thr-Arg-AMC, and Z-Leu-Leu-Glu-AMC for chymotrypsin-like, trypsin-like, and peptidyl glutamyl peptide hydrolase activity, respectively) as reported elsewhere. Briefly, individual mixtures consisting of the compounds (0–100 μM), 1 μg of isolated 20S proteasome, the specific substrate, and 50 mM Tris–HCl pH 8.0 up to a final volume of 100 μL were incubated at 37 °C, and after 1 h, the fluorescence measurements of the hydrolyzed AMC were recorded on a SpectraMax Gemini XPS microplate reader (λexc = 365 nm, λem = 449 nm).

[3] = test system: HEK293T human embryonic kidney cells; assay: MTT cytotoxicity assay, HEK293T cells; format: cell-based; conditions: 72 h exposure, mean ± SD of three experiments
Description: as §1, §2

[4] = test system: A2780 human ovarian carcinoma cells; assay: MTT cytotoxicity assay, A2780 cells; format: cell-based; conditions: for IC50: MTT, 72 h exposure, mean ± SD of three experiments; for SI A2780 HEK293T: selectivity index, values equal IC50 HEK293T / IC50 A2780
Description: as §1, §2

[5] = test system: MCF7 human breast adenocarcinoma cells; assay: MTT cytotoxicity assay, MCF7 cells; format: cell-based; conditions: for IC50: MTT, 72 h exposure, mean ± SD of three experiments; for SI MCF7 MCF10A: selectivity index, values equal IC50 MCF10A / IC50 MCF7
Description: as §1, §2

[6] = biological target: 20S proteasome PGPH (caspase-like) activity (Homo sapiens, UniProt P28072); assay: Isolated 20S proteasome, peptidyl glutamyl peptide hydrolase (caspase-like) activity (Z-Leu-Leu-Glu-AMC); format: biochemical; conditions: 0–100 μM, 1 h, 37 °C, pH 8.0
Description: as §3, §4

[7] = test system: A2780cis cisplatin-resistant ovarian cancer cells; assay: MTT cytotoxicity assay, A2780cis cells; format: cell-based, human; conditions: 72 h exposure, mean ± SD of three experiments
Description: as §1, §2

[8] = biological target: 20S proteasome trypsin-like activity (Homo sapiens, UniProt Q99436); assay: Isolated 20S proteasome, trypsin-like activity (Z-Leu-Ser-Thr-Arg-AMC); format: biochemical; conditions: for IC50: 0–100 μM, 1 h, 37 °C, pH 8.0
Description: as §3, §4

[9] = test system: MCF10A nontumorigenic cells; assay: MTT cytotoxicity assay, MCF10A cells; format: cell-based, human; conditions: 72 h exposure, mean ± SD of three experiments
Description: as §1, §2

dsDNA oligomer = assay: SPR biosensor binding to surface-anchored dsDNA oligomer; conditions: surface-blocked DNA oligomer; for Kd: equilibrium dissociation constant
Description: The DNA binding ability of curcuminoid ligands and their complexes was evaluated by using a Surface plasmon resonance (SPR) biosensor. The monoexponential nature of binding kinetics for all the compounds is consistent with the presence of a single high-affinity site on DNA (Figure ).
The binding kinetics/affinities of the molecules of interest for DNA were studied according to a previously described biosensor-based method. Briefly, streptavidin was anchored to a carboxylate surface via EDC/NHS chemistry, and 5′-biotinylated dsDNA oligomer (sequence: 3′-[…]-5′) was coupled to surface-blocked streptavidin. Compounds were independently added to the DNA-coated surface at different concentrations, each time following binding kinetics up to equilibrium. PBS buffer was used for both the dissociation and the regeneration steps. Experimental data were fitted to both mono- and biexponential models, and the validity of each model was assessed by a standard F-test procedure. The binding sites on DNA were mapped according to independent competitive binding assays individually using a minor groove binder (GelRed) and a major groove binder (methyl green), respectively. Briefly, GelRed displacement was monitored by comparing the emission spectra of solutions containing different concentrations of curcuminoid-like ligands/complexes (0–100 μM), 20 μM DNA, and GelRed (10 μM) in 10 mM phosphate buffer, pH 7.4. Similarly, methyl green displacement assay was performed by monitoring the absorbance at 630 nm upon addition of candidate competitors (0–100 μM), 100 μM DNA, and methyl green (10 μM) in 50 mM Tris–HCl buffer and 7.5 mM MgSO4, pH 7.5.

[10] = Solubility in water (qualitative); format: physicochemical

SMILES | IC50 ([1]; Homo sapiens) [µM] | IC50 [2] [µM] | IC50 ([3]; Homo sapiens, HEK-293T) [µM] | IC50 ([4]; Homo sapiens, A2780) [µM] | SI A2780 HEK293T [4] | IC50 ([5]; Homo sapiens, MCF7) [µM] | SI MCF7 MCF10A [5] | IC50 [6] [µM] | IC50 [8] [µM] | kass (dsDNA oligomer) [M^–1s^–1] | kdiss (dsDNA oligomer) [s^–1] | Kd (dsDNA oligomer) [µM] | solubility in water [10] | IC50 [1] [µM] | IC50 [3] [µM] | IC50 [4] [µM] | IC50 [5] [µM] | IC50 [7] [µM] | inhibition of the trypsin-like activity (in words) [8] | IC50 [9] [µM] | further results
Oc1ccc(/C=C/c2cc(/C=C/c3ccc(O)cc3)n(-c3ccccn3)n2)cc1 [HZPbdcurc, 4,4′-((1E,1′E)-(1-(pyridin-2-yl)-1H-pyrazole-3,5-diyl)bis(ethene-2,1-diyl))diphenol] | 25.9 ± 11 | > 100 | 17 ± 0.9 | 8 ± 1.2 | 2.13 | 35.1 ± 3 | 0.28 | > 100 | > 100 | 1808 ± 740 | 0.031 ± 0.004 | 17 ± 7.3 |  |  |  |  |  |  |  |  | p62 levels (p62): an increase in the levels of p62 was observed; IC50 ([7]; Homo sapiens, A2780cis): 11.1 ± 2.9 µM; IC50 ([9]; Homo sapiens, MCF-10A): 9.7 ± 6.5 µM
COc1cc(/C=C/c2cc(/C=C/c3ccc(O)c(OC)c3)n(-c3ccccn3)n2)ccc1O [HZPcurc, 4,4′-((1E,1′E)-(1-(pyridin-2-yl)-1H-pyrazole-3,5-diyl)bis(ethene-2,1-diyl))bis(2-methoxyphenol)] | 17.7 ± 3.6 | > 100 | 16.4 ± 0.6 | 5.3 ± 0.4 | 3.10 | 23 ± 6 | 0.30 | > 100 | > 100 | 2994 ± 1142 | 0.013 ± 0.009 | 4.5 ± 2.7 | insoluble in H2O |  |  |  |  |  |  |  | IC50 ([7]; Homo sapiens, A2780cis): 6.7 ± 0.6 µM; IC50 ([9]; Homo sapiens, MCF-10A): 7 ± 4.5 µM
COc1cc(/C=C/c2cc(/C=C/c3ccc(O)c(OC)c3)n(-c3ccccn3)n2)ccc1O.Cc1ccc(C(C)C)cc1.[Cl-].[Cl][Ru+] [[1]Cl, [Ru(p-cym)(HZPcurc)Cl]Cl] |  | > 100 |  |  | 5.43 |  | 0.64 | > 100 | 63 ± 7 | 32082 ± 773 | 0.009 ± 0.004 | 0.29 ± 0.14 | soluble in polar solvents, including H2O | 41 ± 10 | 25 ± 1 | 4.6 ± 0.3 | 49.2 ± 5 | 6.6 ± 0.9 | inhibition of the trypsin-like activity | 31.7 ± 10 | 
COc1cc(/C=C/c2cc(/C=C/c3ccc(O)c(OC)c3)n(-c3ccccn3)n2)ccc1O.Cc1ccc(C(C)C)cc1.[Cl-].[Cl][Os+] [[2]Cl, [Os(p-cym)(HZPcurc)Cl]Cl] |  | 84 ± 60 |  |  | 3.97 |  |  | > 100 | 51 ± 13 | 1156 ± 179 | 0.005 ± 0.002 | 4.2 ± 1.8 | completely soluble | > 100 | 25 ± 8 | 6.3 ± 0.5 | > 100 | 12.1 ± 0.6 | inhibition of the trypsin-like activity | 25.6 ± 15 | 
Cc1ccc(C(C)C)cc1.Oc1ccc(/C=C/c2cc(/C=C/c3ccc(O)cc3)n(-c3ccccn3)n2)cc1.[Cl-].[Cl][Os+] [[4]Cl, [Os(p-cym)(HZPbdcurc)Cl]Cl] |  | 98 ± 50 |  |  | 13.33 |  |  | > 100 | 61 ± 44 | 266 ± 102 | 0.010 ± 0.002 | 39.2 ± 17 | partly soluble in H2O | > 100 | 32 ± 2 | 2.4 ± 0.4 | > 100 | 5.4 ± 0.3 | inhibition of the trypsin-like activity | 25.8 ± 10 | 
